In brackets after ≈: the same amount, converted by molar mass. Read-outs that look alike come from different tables or passages of the source.
Legend:
Assay in all cases: Antibacterial activity MIC assay (two-fold dilution agar plating)
Assay type in all cases: cell-based
[1] = test system: Serratia marcescens; conditions: Serratia marcescens ATCC 21074
Method: (§1) Antibacterial Activity-Evaluating Method (MIC Assay)
(§2) In this study, the compounds of the present invention were tested for their antibacterial activities by using two-fold dilution agar plating method and Denley Multipoint Inoculator A400 according to the guidelines of the CLSI/NCCLS standard. The tested strains were amplified by hydrolyzed casein peptone (Mueller-Hinton Agar) broth and Brain and Heart Infusion. The strains used in this study were bacterial strains that were purchased from ATCC or clinically isolated in Chinese hospitals. Aztreonam, polymyxin or levofloxacin was used as positive control. The drugs were diluted with hydrolyzed casein peptone broth to the desired concentrations including 128.0, 64.0, 32.0, 16.0, 8.0, 4.0, 2.0, 1.0, 0.5, 0.25, 0.125, 0.06 and 0.03 μg/mL, and then placed respectively into each well and mixed thoroughly. After inoculation, the tested strains were incubated for 18 hours at a constant temperature of 35° C., and their growth levels were observed. The drug concentration with no microbial growth in the well was recorded as the lowest Minimal Inhibitory Concentration (MIC).

[2] = test system: Enterobacter cloacae; conditions: for MIC: read-out: Minimal Inhibitory Concentration (MIC)
Method: as §1, §2

[3] = test system: Proteus vulgaris
Method: as §1, §2

[4] = test system: Citrobacter freundii; conditions: Citrobacter freundii ATCC 43864
Method: as §1, §2

[5] = test system: Proteus mirabilis
Method: as §1, §2

[6] = test system: Enterobacter aerogenes; conditions: Enterobacter aerogenes ATCC 13048
Method: as §1, §2

[7] = test system: Shigella flexneri; conditions: Shigella flexneri ATCC 12022
Method: as §1, §2

[8] = test system: Acinetobacter baumannii; conditions: for MIC: Acinetobacter baumannii, read-out: Minimal Inhibitory Concentration (MIC)
Method: as §1, §2

[9] = test system: Salmonella typhi
Method: as §1, §2

[10] = test system: Stenotrophomonas maltophilia; conditions: Stenotrophomonas maltophilia ATCC 13636
Method: as §1, §2

[11] = test system: Escherichia coli; conditions: for MIC: Escherichia coli, read-out: Minimal Inhibitory Concentration (MIC)
Method: as §1, §2

[12] = test system: Klebsiella Pneumoniae; conditions: for MIC: Klebsiella pneumoniae, read-out: Minimal Inhibitory Concentration (MIC)
Method: as §1, §2

[13] = test system: Providencia rettgeri
Method: as §1, §2

[14] = test system: Pseudomonas aeruginosa; conditions: for MIC: read-out: Minimal Inhibitory Concentration (MIC)
Method: as §1, §2

[15] = Enterobacter cloacae CDC1000654
[16] = Escherichia coli 08-85, mcr-1(+)
[17] = Escherichia coli 13-43, mcr-1(+)
[18] = Escherichia coli 13-66, mcr-1(+)
[19] = Escherichia coli 16-1, ESBLs(+)
[20] = Escherichia coli 16-7, ESBLs(−)
[21] = Escherichia coli CDC1001728, NDM-1(+)
[22] = Klebsiella Pneumoniae 09-20, mcr-1(+)
[23] = Klebsiella Pneumoniae 16-2, ESBLs(−)
[24] = Klebsiella Pneumoniae 16-14, ESBLs(+)

C#CCON=C(C(=O)NC1C(=O)N(OS(=O)(=O)O)C1(C)C)c1csc(N)n1 (centres unmarked) [Compound B-2]
Minimal Inhibitory Concentration (MIC) [1]: 0.5 µg/mL | Minimal Inhibitory Concentration (MIC) ([2]; Enterobacter cloacae ATCC 43560): 0.5 µg/mL | Minimal Inhibitory Concentration (MIC) [2, 15]: 8 µg/mL | Minimal Inhibitory Concentration (MIC) ([3]; Proteus vulgaris ATCC 29905): ≤0.03 µg/mL | Minimal Inhibitory Concentration (MIC) [4]: 0.5 µg/mL | Minimal Inhibitory Concentration (MIC) ([5]; Proteus mirabilis ATCC 49565): 0.06 µg/mL | Minimal Inhibitory Concentration (MIC) [6]: 1 µg/mL | Minimal Inhibitory Concentration (MIC) [7]: 0.5 µg/mL | Minimal Inhibitory Concentration (MIC) ([8]; Acinetobacter baumannii 16-16): 32 µg/mL | Minimal Inhibitory Concentration (MIC) ([8]; Acinetobacter baumannii 16-33): 4 µg/mL | Minimal Inhibitory Concentration (MIC) ([8]; Acinetobacter baumannii ATCC 19606): 4 µg/mL | Minimal Inhibitory Concentration (MIC) ([9]; Salmonella typhi H901): 0.5 µg/mL | Minimal Inhibitory Concentration (MIC) [10]: 32 µg/mL | Minimal Inhibitory Concentration (MIC) [11, 16]: 0.5 µg/mL | Minimal Inhibitory Concentration (MIC) [11, 17]: 1 µg/mL | Minimal Inhibitory Concentration (MIC) [11, 18]: 1 µg/mL | Minimal Inhibitory Concentration (MIC) [11, 19]: 0.25 µg/mL | Minimal Inhibitory Concentration (MIC) [11, 20]: 0.5 µg/mL | Minimal Inhibitory Concentration (MIC) ([11]; Escherichia coli ATCC 25922, ESBLs(−)): 0.5 µg/mL | Minimal Inhibitory Concentration (MIC) ([11]; Escherichia coli ATCC 35218, ESBLs(+)): 0.25 µg/mL | Minimal Inhibitory Concentration (MIC) [11, 21]: 4 µg/mL | Minimal Inhibitory Concentration (MIC) [12, 22]: 1 µg/mL | Minimal Inhibitory Concentration (MIC) [12, 23]: 0.5 µg/mL | Minimal Inhibitory Concentration (MIC) [12, 24]: 1 µg/mL | Minimal Inhibitory Concentration (MIC) ([12]; Klebsiella Pneumoniae ATCC 700603, ESBLs(+)): 16 µg/mL | Minimal Inhibitory Concentration (MIC) ([12]; Klebsiella Pneumoniae ATCC BAA-2146, NDM-1(+)): 8 µg/mL | Minimal Inhibitory Concentration (MIC) ([13]; Providencia rettgeri ATCC 31052): ≤0.03 µg/mL | Minimal Inhibitory Concentration (MIC) ([14]; Pseudomonas aeruginosa 16-11): >64 µg/mL | Minimal Inhibitory Concentration (MIC) ([14]; Pseudomonas aeruginosa ATCC 27853): >64 µg/mL | Minimal Inhibitory Concentration (MIC) ([14]; Pseudomonas aeruginosa PAO1): 32 µg/mL

CC1(C)[C@H](NC(=O)/C(=N\OC2(C(=O)O)CCCC2)c2csc(N)n2)C(=O)N1OS(=O)(=O)O [Compound A-3]
MIC ([1]; ATCC21074, read-out: Minimal Inhibitory Concentration (MIC)): 0.5 µg/mL (≈ 1.02 µM) | MIC ([2]; ATCC43560, Enterobacter cloacae ATCC 43560): 0.5 µg/mL (≈ 1.02 µM) | MIC [2, 15]: 4 µg/mL (≈ 8.14 µM) | MIC ([3]; Proteus vulgaris, ATCC29905, Proteus vulgaris ATCC 29905, read-out: Minimal Inhibitory Concentration (MIC)): ≤ 0.03 µg/mL | MIC ([4]; ATCC43864, read-out: Minimal Inhibitory Concentration (MIC)): 0.25 µg/mL (≈ 0.509 µM) | MIC ([5]; Proteus mirabilis, ATCC49565, Proteus mirabilis ATCC 49565, read-out: Minimal Inhibitory Concentration (MIC)): 0.06 µg/mL (≈ 0.122 µM) | MIC ([6]; Klebsiella aerogenes, ATCC13048, read-out: Minimal Inhibitory Concentration (MIC)): 0.5 µg/mL (≈ 1.02 µM) | MIC ([7]; ATCC12022, read-out: Minimal Inhibitory Concentration (MIC)): 0.25 µg/mL (≈ 0.509 µM) | MIC ([8]; ATCC19606, Acinetobacter baumannii ATCC 19606): 32 µg/mL (≈ 65.1 µM) | MIC ([8]; Acinetobacter baumannii 16-16): > 64 µg/mL | MIC ([8]; Acinetobacter baumannii 16-33): 32 µg/mL (≈ 65.1 µM) | MIC ([9]; Salmonella enterica, TYPHI, read-out: Minimal Inhibitory Concentration (MIC)): 0.5 µg/mL (≈ 1.02 µM) | MIC ([10]; ATCC13636, read-out: Minimal Inhibitory Concentration (MIC)): 4 µg/mL (≈ 8.14 µM) | MIC ([11]; ATCC25922, Escherichia coli ATCC 25922, ESBLs(−)): 0.25 µg/mL (≈ 0.509 µM) | MIC ([11]; ATCC35218, Escherichia coli ATCC 35218, ESBLs(+)): 0.25 µg/mL (≈ 0.509 µM) | MIC [11, 16]: 0.25 µg/mL (≈ 0.509 µM) | MIC [11, 17]: 0.5 µg/mL (≈ 1.02 µM) | MIC [11, 18]: 0.25 µg/mL (≈ 0.509 µM) | MIC [11, 19]: 0.25 µg/mL (≈ 0.509 µM) | MIC [11, 20]: 0.5 µg/mL (≈ 1.02 µM) | MIC ([11]; Escherichia coli 17-R28, CRE, NDM-1(+)): 8 µg/mL (≈ 16.3 µM) | MIC [11, 21]: 0.5 µg/mL (≈ 1.02 µM) | MIC ([12]; ATCC700603, Klebsiella Pneumoniae ATCC 700603, ESBLs(+)): 1 µg/mL (≈ 2.03 µM) | MIC ([12]; ATCCBAA2146, Klebsiella Pneumoniae ATCC BAA-2146, NDM-1(+)): 0.5 µg/mL (≈ 1.02 µM) | MIC [12, 22]: 0.25 µg/mL (≈ 0.509 µM) | MIC [12, 23]: 2 µg/mL (≈ 4.07 µM) | MIC [12, 24]: 0.5 µg/mL (≈ 1.02 µM) | MIC ([12]; Klebsiella Pneumoniae 17-R27, CRE): 0.25 µg/mL (≈ 0.509 µM) | MIC ([13]; Providencia rettgeri, ATCC31052, Providencia rettgeri ATCC 31052, read-out: Minimal Inhibitory Concentration (MIC)): ≤ 0.03 µg/mL | MIC ([14]; ATCC27853, Pseudomonas aeruginosa ATCC 27853): 4 µg/mL (≈ 8.14 µM) | MIC ([14]; Pseudomonas aeruginosa 16-11): 4 µg/mL (≈ 8.14 µM) | MIC ([14]; Pseudomonas aeruginosa PAO1): 2 µg/mL (≈ 4.07 µM)

— patent US12497393B2, “β-lactam compound, use thereof and preparation method therefor” (priority 2020, dated 2025)
